Measured values published in patent publication US12497396B2, “Nitrogen-containing heterocyclic derivatives, method therefor and application therefor as inhibitors of KRAS G12C for the treatment of cancers” (SHANGHAI HANSOH BIOMEDICAL CO., LTD., priority 2019, dated 2025).
Like-named read-outs stand apart in the source and are kept apart here.

Tests used:
[1] = tested on: NCI-H358 cells (KRAS G12C mutant cell line); test: Inhibition of NCI-H358 cell proliferation (CellTiter-Glo, 72 h); type: cell-based, human
Source text: (§1) As a preferred embodiment of the present disclosure, the detection method of NCI-H358 cell proliferation inhibitory activity and Mia PaCa-2 cell proliferation inhibitory activity is as follows: through cell culture, adding different concentrations of compound solutions to the cultured cells, continuing the culture for a period of time and measuring the cell proliferation; • further, the method of cell culture is: adjusting the cells to a suitable cell concentration with complete medium and spreading the cell suspension in well plates for culture; preferably, the culture conditions are 37° C., 5% CO2 incubator overnight; preferably, the cell suspension is spread in 96-well plates, 48-well plates, 24-well plates, 12-well plates or 6-well plates, more preferably 96-well plates; preferably, the suitable cell concentration is 1500-4000 cells/well, with 90 μL of cell suspension added to each well; • further, the compound solution is prepared with DMSO and may be further diluted with medium; preferably, the compound solution has a concentration gradient starting from 100 μM at 4-fold dilution, more preferably starting from 30 μM at 4-fold dilution, most preferably starting from 10 μM at 4-fold dilution; • further, the volume of the compound solution or solvent added to each well is 1-10 μL, preferably 10 μL; • further, after adding the compound solution, the conditions for continuing the culture are 37° C., 5% CO2 incubator; preferably, the culture time is 24-72 h, more preferably 72 h; • further, the method for measuring cell proliferation is MTT, CCK8, CellTiter-Glo; preferably the method is CellTiter-Glo; • further, the cell proliferation is read using a microplate reader, more preferably a BioTek Synergy H1 microplate reader.
(§2) When NCI-H358 or Mia PaCa-2 cells were cultured to the appropriate fusion level, the NCI-H358 or Mia PaCa-2 cells were collected, and the cells were adjusted to the appropriate cell concentration using a complete medium, and the cell suspension was spread in a 96-well plate, 90 μL per well, and placed in a 37° C., 5% CO2 incubator overnight; and compound solutions of different concentrations were prepared using DMSO and culture medium; and a solvent control was set, the compound solution was added to a 96-well plate, 10 μL per well, at 37° C. in a 5% CO2 incubator for 72 hours; CellTiter-Glo solution was added thereto and the mixture was mixed well by shaking, incubated for 10 min in the dark, and read by BioTek Synergy H1 microplate reader.
(§3) The luminescence signal values were used to calculate the inhibition rate, the concentration and the inhibition rate were fitted to a nonlinear regression curve using Graphpad Prism software, then the IC50 value was obtained.

[2] = tested on: Mia PaCa-2 cells (KRAS G12C mutant cell line); test: Inhibition of Mia PaCa-2 cell proliferation (CellTiter-Glo, 72 h); type: cell-based, human
Source text: as §1, §2, §3

human KRAS G12C protein = target: T1, human KRAS G12C protein (Homo sapiens, UniProt P01116, G12C); test: Thermal shift: melting temperature of KRAS G12C protein; type: binding; conditions: for Tm (° C.): KRAS G12C protein 5.37 μM with compound 10 μM, 1 hour incubation; for ΔTm (° C.) / ΔTm at 10 µM: compound 10 μM, Tm minus Tm of DMSO solvent control
T1 construct: purchased Beijing SinoBiological Co., Ltd. 12259-H07E2
Protocol: A solution containing […] (pH 7.5), 1 mM DTT, 5×SYPRO Orange and 150 mM NaCl was prepared as the experimental buffer, and a final concentration of 5.37 μM human KRAS G12C protein was added thereto. […] After incubating at room temperature in the dark for 1 hour, the PCR tube was put into the PCR instrument, QuantStudio Software v1.3 was opened, and the melting temperature of KRAS G12C protein in different treatment groups was detected by melt curve function (heating from 25° C. to 95° C., 0.03° C./s). The experimental data file of PCR instrument was imported into thermal shift software, and the melting temperature (Tm) of each treatment group was obtained, and the change value of melting temperature (Δ Tm) was obtained by subtracting the Tm of DMSO solvent control group.

Compound	IC50 [1]	IC50 [2]	Tm (° C.) (human KRAS G12C protein)	ΔTm (° C.) (human KRAS G12C protein)	IC50 ([1]; Homo sapiens)	IC50 ([2]; Homo sapiens)	ΔTm at 10 µM (human KRAS G12C protein)
C=CC(=O)N1CCN(c2nc(=O)n(-c3c(C)ccnc3CC(C)C)c3nc(-c4c(F)cccc4SCC)c(F)cc23)[C@@H](C)C1 [Embodiment 118]	89 nM	82 nM	59.0 °C	8.4 °C	–	–	–
C=CC(=O)N1CCN(c2nc(=O)n(-c3c(S(C)(=O)=O)ccnc3C(C)C)c3nc(-c4c(O)cccc4F)c(Cl)cc23)[C@@H](C)C1 [Embodiment 155, 4-((S)-4-acryloyl-2-methylpiperazin-1-yl)-6-chloro-7-(2-fluoro-6-hydroxyphenyl)-1-(2-isopropyl-4-(methylsulfonyl)pyridin-3-yl) pyrido [2,3-d] pyrimidin-2 (1H)-one]	–	–	60.9 °C	–	24 nM	26 nM	11.1 °C
C=CC(=O)N1CCN(c2nc(=O)n(-c3c(SC)ccnc3C(C)C)c3nc(-c4c(F)cccc4SC)c(F)cc23)[C@@H](C)C1 [Embodiment 131]	48 nM	47 nM	61.2 °C	11.7 °C	–	–	–
C=CC(=O)N1CCN(c2nc(=O)n(-c3c(SC)ccnc3C(C)C)c3nc(-c4c(N)ccc(Cl)c4F)c(Cl)cc23)[C@@H](C)C1 [Embodiment 150, 4-((S)-4-acryloyl-2-methylpiperazin-1-yl)-7-(6-amino-3-chloro-2-fluorophenyl)-6-chloro-1-(2-isopropyl-4-(methylthio)pyridin-3-yl) pyrido [2,3-d] pyrimidin-2 (1H)-one]	–	–	60.2 °C	–	5.4 nM	8.6 nM	13.4 °C
C=CC(=O)N1CCN(c2nc(=O)n(-c3c(SC)cc(C)nc3C(C)C)c3nc(-c4c(O)cccc4F)c(F)cc23)[C@@H](C)C1 [Embodiment 152, 4-((S)-4-acryloyl-2-methylpiperazin-1-yl)-6-fluoro-7-(2-fluoro-6-hydroxyphenyl)-1-(2-isopropyl-6-methyl-4-(methylthio)pyridin-3-yl) pyrido [2,3-d] pyrimidin-2 (1H)-one]	–	–	60.0 °C	–	45 nM	91 nM	11.4 °C
C=CC(=O)N1CCN(c2nc(=O)n(-c3c(C)ccnc3C(C)C)c3nc(-c4ccccc4SC)c(F)cc23)[C@@H](C)C1 [Embodiment 138]	67 nM	104 nM	59.4 °C	8.8 °C	–	–	–
C=CC(=O)N1CCN(c2nc(=O)n(-c3c(SC)ccnc3C(C)C)c3nc(-c4c(O)cccc4F)c(F)cc23)[C@@H](C)C1 [Embodiment 60, 4-((S)-4-acryloyl-2-methylpiperazin-1-yl)-6-fluoro-7-(2-fluoro-6-hydroxyphenyl)-1-(2-isopropyl-4-(methylthio)pyridin-3-yl)pyrido[2,3-d]pyrimidin-2(1H)-one]	–	–	60.2 °C	–	40 nM	60 nM	11.6 °C
C=CC(=O)N1CCN(c2nc(=O)n(-c3c(SC)ccnc3C(C)C)c3nc(-c4c(N)c(Cl)cc(Cl)c4F)c(Cl)cc23)[C@@H](C)C1 [Embodiment 191, 4-((s)-4-acryloyl-2-methylpiperazine-1-yl)-7-(2-amino-3,5-dichloro-6-fluorophenyl)-6-chloro-1-(2-isopropyl-4-(methylthio)pyridin-3-yl) pyrido [2,3-d] pyrimidin-2 (1H)-one]	–	–	–	–	32 nM	16 nM	–
C=CC(=O)N1C[C@H](C)N(c2nc(=O)n(-c3c(SC)ccnc3C(C)C)c3nc(-c4c(N)ccc(Cl)c4F)c(Cl)cc23)C[C@H]1C [Embodiment 165, 4-((2S, 5R)-4-acryloyl-2,5-dimethylpiperazin-1-yl)-7-(6-amino-3-chloro-2-fluorophenyl)-6-chloro-1-(2-isopropyl-4-(methylthio)pyridin-3-yl) pyrido [2,3-d] pyrimidin-2 (1H)-one]	–	–	58.0 °C	–	5.9 nM	7.6 nM	11 °C
C=CC(=O)N1CCN(c2nc(=O)n(-c3c(SC)ccnc3C(C)C)c3nc(-c4c(O)cccc4F)c(F)cc23)[C@@H](C)C1 (single isomer, unassigned) [Embodiment 60-1]	–	–	–	–	28 nM	55 nM	–
C=CC(=O)N1C[C@H](C)N(c2nc(=O)n(-c3c(SC)ccnc3C(C)C)c3nc(-c4c(O)cccc4F)c(Cl)cc23)C[C@H]1C [Embodiment 166, 4-((2S, 5R)-4-acryloyl-2,5-dimethylpiperazin-1-yl)-6-chloro-7-(2-fluoro-6-hydroxyphenyl)-1-(2-isopropyl-4-(methylthio)pyridin-3-yl) pyrido [2,3-d] pyrimidin-2 (1H)-one]	–	–	–	–	16 nM	23 nM	–
C=CC(=O)N1CCN(c2nc(=O)n(-c3c([S+](C)[O-])ccnc3C(C)C)c3nc(-c4c(N)c(Cl)cc(Cl)c4F)c(Cl)cc23)[C@@H](C)C1 (stereo partly drawn) [Embodiment 192, 4-((S)-4-acryloyl-2-methylpiperazin-1-yl)-7-(2-amino-3,5-dichloro-6-fluorophenyl)-6-chloro-1-(2-isopropyl-4-(methylsulfinyl)pyridin-3-yl) pyrido [2,3-d] pyrimidin-2 (1H)-one]	–	–	–	–	29 nM	13 nM	–
C=CC(=O)N1CCN(c2nc(=O)n(-c3c(SC)ccnc3C(C)C)c3nc(-c4c(F)cccc4F)c(F)cc23)[C@@H](C)C1 [Embodiment 169, (S)-4-(4-acryloyl-2-methylpiperazin-1-yl)-7-(2,6-difluorophenyl)-6-fluoro-1-(2-isopropyl-4-(methylthio)pyridin-3-yl) pyrido [2,3-d] pyrimidin-2 (1H)-one]	79 nM	68 nM	–	–	–	–	–
C=CC(=O)N1CCN(c2nc(=O)n(-c3c(SC)ccnc3C(C)C)c3nc(-c4c(O)cccc4F)c(Cl)cc23)[C@@H](C)C1 [Embodiment 130]	14 nM	41 nM	61.5 °C	10.9 °C	–	–	–
C=CC(=O)N1CCN(c2nc(=O)n(-c3c(SC)ccnc3C(C)C)c3nc(-c4c(N)ccc(Cl)c4F)c(F)cc23)[C@@H](C)C1 [Embodiment 151, 4-((S)-4-acryloyl-2-methylpiperazin-1-yl)-7-(6-amino-3-chloro-2-fluorophenyl)-6-fluoro-1-(2-isopropyl-4-(methylthio)pyridin-3-yl)pyrido[2,3-d]pyrimidin-2(1H)-one]	–	–	–	–	39 nM	59 nM	–
C=CC(=O)N1CCN(c2nc(=O)n(-c3c(C)ccnc3C(C)C)c3nc(-c4c(F)cccc4SC)c(F)cc23)[C@@H](C)C1 [Embodiment 75, (S)-4-(4-acryloyl-2-methylpiperazin-1-yl)-6-fluoro-7-(2-fluoro-6-(methylthio)phenyl)-1-(2-isopropyl-4-methylpyridin-3-yl) pyrido[2,3-d]pyrimidin-2 (1H)-one]	–	–	61.2 °C	–	24 nM	34 nM	10.6 °C
C=CC(=O)N1CCN(c2nc(=O)n(-c3c(SC)ccnc3C(C)C)c3nc(-c4c(F)cccc4F)c(F)cc23)[C@@H](C)C1 [Embodiment 154, (S)-4-(4-acryloyl-2-methylpiperazin-1-yl)-7-(2,6-difluorophenyl)-6-fluoro-1-(2-isopropyl-4-(methylthio)pyridin-3-yl)pyrido[2,3-d]pyrimidin-2(1H)-one]	–	–	–	–	79 nM	68 nM	–
